# Key:
# Details in all cases: 72 h
# U2OS [1] = assay: drug sensitivity score (DSS) for viability; higher = more toxic; extreme values may be limits of the assay
# Caco-2 [2] = assay: as above
# HepG2 [3] = assay: as above
# Calu-3 [4] = assay: as above
# Vero E6 [5] = assay: as above
# U2OS [6] = assay: relative viability EC50 (midpoint between 100% and the lowest measured viability); higher = less toxic
# Caco-2 [7] = assay: as above
# HepG2 [8] = assay: as above
# Calu-3 [9] = assay: as above
# Vero E6 [10] = assay: as above
# U2OS [11] = assay: cell viability relative to DMSO; higher = less toxic
# Caco-2 [12] = assay: as above
# HepG2 [13] = assay: as above
# Calu-3 [14] = assay: as above
# Vero E6 [15] = assay: as above
SMILES,drug sensitivity score (U2OS [1]),drug sensitivity score (Caco-2 [2]),drug sensitivity score (HepG2 [3]),drug sensitivity score (Calu-3 [4]),drug sensitivity score (Vero E6 [5]),relative viability EC50 (U2OS [6]),relative viability EC50 (Caco-2 [7]),relative viability EC50 (HepG2 [8]),relative viability EC50 (Calu-3 [9]),relative viability EC50 (Vero E6 [10]),cell viability (U2OS [11]; 1 nM),cell viability (U2OS [11]; 10 nM),cell viability (U2OS [11]; 100 nM),cell viability (U2OS [11]; 1000 nM),cell viability (U2OS [11]; 10000 nM),cell viability (Caco-2 [12]; 1 nM),cell viability (Caco-2 [12]; 10 nM),cell viability (Caco-2 [12]; 100 nM),cell viability (Caco-2 [12]; 1000 nM),cell viability (Caco-2 [12]; 10000 nM),cell viability (HepG2 [13]; 1 nM),cell viability (HepG2 [13]; 10 nM),cell viability (HepG2 [13]; 100 nM),cell viability (HepG2 [13]; 1000 nM),cell viability (HepG2 [13]; 10000 nM),cell viability (Calu-3 [14]; 1 nM),cell viability (Calu-3 [14]; 10 nM),cell viability (Calu-3 [14]; 100 nM),cell viability (Calu-3 [14]; 1000 nM),cell viability (Calu-3 [14]; 10000 nM),cell viability (Vero E6 [15]; 1 nM),cell viability (Vero E6 [15]; 10 nM),cell viability (Vero E6 [15]; 100 nM),cell viability (Vero E6 [15]; 1000 nM),cell viability (Vero E6 [15]; 10000 nM)
C[C@]12CCC(=O)C=C1[C@@H]1C[C@@H]1[C@H]1[C@@H]3[C@@H]4C[C@@H]4[C@@]4(CCC(=O)O4)[C@@]3(C)CC[C@@H]12 [drospirenone],0,0,0,0,0,> 10 µM,> 10 µM,> 10 µM,> 10 µM,> 10 µM,98.7%,102%,103%,104%,88.3%,86.1%,96.5%,96.1%,94.1%,108%,99.1%,102%,106%,98.4%,92.7%,99.5%,97.9%,97.4%,100%,120%,108%,102%,112%,101%,89.2%
O=C1Nc2ccc(Cl)cc2[C@@](C#CC2CC2)(C(F)(F)F)O1 [efavirenz],0,0,0,0,0,> 10 µM,> 10 µM,> 10 µM,> 10 µM,> 10 µM,99.2%,96.3%,98.4%,106%,94.5%,95.7%,96.3%,83.3%,96.3%,124%,92.1%,86.1%,95.9%,83.4%,94.6%,97.5%,107%,93.8%,97.7%,114%,98.4%,93.5%,91.4%,90%,101%
c1cc2c(c(N3CCNCC3)c1)OCCO2 [eltoprazine],0,0,0,0,0,> 10 µM,> 10 µM,> 10 µM,> 10 µM,> 10 µM,98.4%,99.6%,92.9%,93.6%,88.2%,105%,97.1%,106%,108%,101%,97%,101%,92.2%,92.4%,95.7%,92.4%,76.5%,97.7%,108%,107%,96.5%,96.5%,97.9%,91.9%,103%
N=C(N)NCCCC[C@@H]1NC(=O)CCSSC[C@@H](C(N)=O)NC(=O)[C@@H]2CCCN2C(=O)[C@H](Cc2c[nH]c3ccccc23)NC(=O)[C@H](CC(=O)O)NC(=O)CNC1=O [eptifibatide],0,0,0,0,0.9,> 10 µM,> 10 µM,> 10 µM,> 10 µM,> 10 µM,96.6%,97.4%,93.7%,98.5%,96%,94.6%,99.5%,85.8%,95.4%,95.6%,97%,92.6%,94.7%,87.1%,95.5%,96.4%,104%,100%,103%,101%,105%,95.2%,100%,94.8%,83.3%
C#C[C@]1(O)CC[C@H]2[C@@H]3CCC4=CC(=O)CC[C@@H]4[C@H]3C(=C)C[C@@]21CC [etonogestrel],0,0.6,0,0,0,> 10 µM,> 10 µM,> 10 µM,> 10 µM,> 10 µM,93.8%,95.1%,93.8%,97.1%,103%,87.3%,75.4%,98.7%,81.7%,104%,95.4%,97.2%,94.1%,90%,104%,92.7%,95.1%,104%,97.6%,102%,98.2%,84.7%,95.6%,85.2%,104%
COc1ccc(-c2ccc(=N)n(CCCC(=O)O)n2)cc1 [gabazine],0,0,0,0,0,> 10 µM,> 10 µM,> 10 µM,> 10 µM,> 10 µM,102%,98.5%,100%,97.1%,103%,111%,106%,99.9%,105%,103%,91.5%,97%,96.8%,95.4%,100%,94.8%,104%,95.1%,98%,93.5%,99.5%,100%,98.9%,95.9%,96%
O=C(O)c1cc(O)c(O)c(O)c1 [gallic-acid],0,0,1.6,0,0,> 10 µM,> 10 µM,> 10 µM,> 10 µM,> 10 µM,99.4%,94.8%,96.5%,97.3%,106%,104%,89.2%,109%,96.7%,101%,100%,94.8%,102%,91.4%,79.6%,85.4%,93%,96.4%,102%,102%,99.1%,92.4%,95%,106%,102%
CCN(CC)Cc1ccc2cc(COC(=O)Nc3ccc(C(=O)NO)cc3)ccc2c1 [givinostat],14.3,13.1,17,15.6,13.8,0.561 µM,0.686 µM,0.327 µM,0.263 µM,0.653 µM,99.6%,93.2%,92.7%,30.8%,0.6%,97.8%,89.7%,93.2%,38.4%,0.8%,99.8%,102%,80.9%,20.4%,0.1%,88.3%,94.6%,77.1%,30.8%,12.9%,94.7%,97.7%,96.7%,31.6%,-0.1%
COc1ccc2c(c1)C(=O)N(CCc1ccc(S(=O)(=O)NC(=O)NC3CCCCC3)cc1)C(=O)C2(C)C [gliquidone],0,0,0,0,0,> 10 µM,> 10 µM,> 10 µM,> 10 µM,> 10 µM,91%,89.3%,102%,87.1%,95.9%,88.1%,95.3%,109%,102%,101%,103%,98.9%,96.4%,106%,106%,106%,96.5%,99.9%,104%,106%,97.8%,99.5%,92.3%,100%,94.9%
C[N+]1(C)CCC(OC(=O)C(O)(c2ccccc2)C2CCCC2)C1 (stereo not given) [glycopyrrolate],0,0,0,0,0,> 10 µM,> 10 µM,> 10 µM,> 10 µM,> 10 µM,101%,102%,98%,99.5%,95.1%,104%,98.6%,94.8%,103%,96%,108%,99.3%,97.4%,92.3%,105%,102%,105%,97.7%,102%,98.5%,106%,100%,100%,99.7%,98.3%
COC1=CC(=O)C[C@@H](C)[C@]12Oc1c(Cl)c(OC)cc(OC)c1C2=O [griseofulvin],0,0,0,0,0,> 10 µM,> 10 µM,> 10 µM,> 10 µM,> 10 µM,102%,100%,102%,98.8%,96.2%,106%,88.5%,93.6%,103%,88.1%,86.3%,95.5%,95.6%,101%,90%,106%,95.7%,98%,107%,108%,104%,98.8%,91.1%,107%,94.8%
O=C(O)C1=CCCNC1 [guvacine],0,0,0,0.4,0,> 10 µM,> 10 µM,> 10 µM,> 10 µM,> 10 µM,105%,98.9%,102%,96.5%,102%,99.7%,85.6%,102%,102%,96.5%,102%,97%,96.3%,100%,105%,106%,99%,102%,88.2%,92.2%,100%,101%,98%,104%,97.5%
Cc1nccc2c1[nH]c1ccccc12 [harmane],0,0,0,0,0,> 10 µM,> 10 µM,> 10 µM,> 10 µM,> 10 µM,101%,98.8%,100%,97.5%,101%,95.1%,101%,105%,102%,93%,92.9%,96.2%,99.6%,99.1%,105%,106%,97.7%,101%,91.8%,103%,97.2%,102%,94.3%,96.6%,98.2%
CC(N)CCCC(C)(C)O (stereo not given) [heptaminol],0,0,0,0,0,> 10 µM,> 10 µM,> 10 µM,> 10 µM,> 10 µM,95.1%,97.7%,98.1%,103%,105%,90.3%,91.7%,96.7%,107%,106%,106%,96.3%,102%,95.6%,104%,94.4%,144%,103%,101%,94.2%,95.1%,95.7%,97.3%,94.3%,104%
